Source: ChEMBL document CHEMBL5137057, “Small Carbohydrate Derivatives as Potent Antibiofilm Agents” (J Med Chem, 2022)
Converted amounts (≈) assume the structure as drawn.

Key:
Pseudomonas aeruginosa [1] = assay: Antibacterial activity against Pseudomonas aeruginosa PAO1 NCTC 10332 assessed as inhibition of biofilm formation incubated for 24 hrs by crystal violet staining based analysis; format: functional, organism-based; conditions: PAO1 NCTC 10332, 24 h
Staphylococcus aureus [2] = assay: Antibacterial activity against Staphylococcus aureus ATCC 25923 assessed as inhibition of biofilm formation incubated for 24 hrs by crystal violet staining based analysis relative to control; format: functional; parameters: scale not given: the % may be the effect or the level left
Serratia marcescens = assay: Antibacterial activity against Serratia marcescens ATCC 27117 assessed as inhibition of biofilm formation at 50 ug/ml incubated for 24 hrs by crystal violet staining based analysis relative to control; format: functional; parameters: scale not given: the % may be the effect or the level left; conditions: dose 50 µg/ml
[3] = system: Mycolicibacterium smegmatis; assay: Antimicrobial activity against Mycobacterium smegmatis MC2 155 assessed as planktonic growth inhibition measured after 48 hrs by microplate reader analysis; format: functional
[4] = system: Mycolicibacterium smegmatis; assay: Antibiofilm activity against Mycobacterium smegmatis MC2 155 assessed as […] measured after 48 hrs by crystal violet staining based analysis; format: functional
Staphylococcus aureus [5] = assay: Potentiation of vancomycin-induced antibacterial activity against methicillin resistant Staphylococcus aureus Mu50 in presence of vancomycin; format: functional, organism-based
[6] = target: T1, Fucose-binding lectin PA-IIL (Pseudomonas aeruginosa (strain ATCC 15692 / DSM 22644 / CIP 104116 / JCM14847 / LMG 12228 / 1C / PRS 101 / PAO1), UniProt Q9HYN5); assay: Binding affinity to Pseudomonas aeruginosa PAO1 LecB assessed as dissociation constant by isothermal titration calorimetry
Target sequence in this assay (Q9HYN5 whole entry): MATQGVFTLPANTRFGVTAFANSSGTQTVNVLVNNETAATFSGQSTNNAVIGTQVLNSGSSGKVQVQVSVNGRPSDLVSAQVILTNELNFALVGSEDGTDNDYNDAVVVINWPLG

[7] = target: T1, Fucose-binding lectin PA-IIL; assay: Inhibition of Pseudomonas aeruginosa PA14 LecB incubated for 22 to 24 hrs by fluorescence polarization based competitive binding analysis
Target sequence in this assay (Q9HYN5 1-115): as the sequence (Q9HYN5 whole entry) above

[8] = target: T1, Fucose-binding lectin PA-IIL; assay: Binding affinity to Pseudomonas aeruginosa PA14 LecB assessed as dissociation constant by isothermal titration calorimetry
Target sequence in this assay (Q9HYN5 1-115): as the sequence (Q9HYN5 whole entry) above

[9] = target: Type 1 fimbrin D-mannose specific adhesin (Escherichia coli K-12) (UniProt P08191); assay: Inhibition of Escherichia coli UTI89 FimH by hemagglutination assay
[10] = target: Type 1 fimbrin D-mannose specific adhesin (Escherichia coli K-12) (UniProt P08191); assay: Relative inhibitory potency, ratio of methyl alpha-D-mannose Kd to compound Kd for binding affinity to C-terminal His-tagged truncated Escherichia coli FimH by SPR analysis; conditions: K12
Pseudomonas aeruginosa [11] = assay: Antibiofilm activity against Pseudomonas aeruginosa PA14 measured after 48 hrs by confocal laser scanning microscope analysis relative to control; format: functional
[12] = target: T2, PA-I galactophilic lectin (Pseudomonas aeruginosa (strain ATCC 15692 / PAO1 / 1C / PRS 101 / LMG12228), UniProt Q05097); assay: Binding affinity to Pseudomonas aeruginosa LecA assessed as dissociation constant by isothermal titration calorimetry
T2 sequence (Q05097 whole entry): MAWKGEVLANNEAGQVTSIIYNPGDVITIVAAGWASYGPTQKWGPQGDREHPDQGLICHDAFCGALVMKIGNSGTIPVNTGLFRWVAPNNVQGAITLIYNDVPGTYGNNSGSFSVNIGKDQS

[13] = target: T2, PA-I galactophilic lectin; assay: Inhibition of Pseudomonas aeruginosa LecA incubated for 4 to 6 hrs by fluorescence polarization based competitive binding analysis
Staphylococcus aureus [14] = assay: Antibiofilm activity against methicillin-sensitive Staphylococcus aureus UAMS-1 measured after 22 hrs by crystal violet staining based assay; format: functional
Escherichia coli = assay: Antibiofilm activity against Escherichia coli UTI89; format: functional, organism-based

Sequence of Type 1 fimbrin D-mannose specific adhesin (Escherichia coli K-12) (P08191 whole entry, the tested form may be a part): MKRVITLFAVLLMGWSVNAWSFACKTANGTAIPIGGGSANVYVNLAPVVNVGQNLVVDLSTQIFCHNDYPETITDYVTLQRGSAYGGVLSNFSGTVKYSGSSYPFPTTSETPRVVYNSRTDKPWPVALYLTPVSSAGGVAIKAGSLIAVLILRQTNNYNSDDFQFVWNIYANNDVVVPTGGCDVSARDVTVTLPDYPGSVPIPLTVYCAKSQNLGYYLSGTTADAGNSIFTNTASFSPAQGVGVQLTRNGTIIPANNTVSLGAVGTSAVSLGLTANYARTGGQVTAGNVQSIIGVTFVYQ

Structure (SMILES): CCCCCCC[C@H](CC(=O)O)OC(=O)C[C@@H](CCCCCCC)O[C@@H]1O[C@@H](C)[C@H](O)[C@@H](O)[C@H]1O[C@@H]1O[C@@H](C)[C@H](O)[C@@H](O)[C@H]1O
- IC50 (Pseudomonas aeruginosa [1]): 75 µg/mL (≈ 115 µM)

Structure (SMILES): CCCCCCC[C@H](CC(=O)N1CCCCC1)OC(=O)C[C@@H](CCCCCCC)O[C@@H]1O[C@@H](C)[C@H](O)[C@@H](O)[C@H]1O[C@@H]1O[C@@H](C)[C@H](O)[C@@H](O)[C@H]1O
- Activity (Staphylococcus aureus [2]): >90%
- Activity (Serratia marcescens): >80%

Structure (SMILES): [N-]=[N+]=N[C@H]1[C@@H](O[C@H]2O[C@H](CO)[C@@H](O)[C@H](O)[C@H]2O)O[C@H](CO)[C@@H](O)[C@@H]1O
- MIC [3]: > 500 µM
- MBIC [4]: 500 µM

Structure (SMILES): O=C(NC[C@@H]1O[C@H](CNC(=O)c2ccccc2Cl)[C@@H](O)[C@H]1O)c1ccccc1
- EC50 (Staphylococcus aureus [5]): 3710 nM

Structure (SMILES): C[C@@H]1O[C@H](CNC(=O)/C=C/c2ccccc2)[C@@H](O)[C@H](O)[C@@H]1O
- Kd [6]: 3090 nM
- IC50 [7]: 2500 nM
- Kd [8]: 2590 nM

Structure (SMILES): CNC(=O)c1cccc(-c2ccc(O[C@H]3O[C@H](CO)[C@@H](O)[C@H](O)[C@@H]3O)c(C(F)(F)F)c2)c1
- EC>90 [9]: 32 nM

Structure (SMILES): Cc1cc(=O)oc2ccc(O[C@H]3O[C@H](CO)[C@@H](O)[C@H](O)[C@@H]3O)cc12
- Ratio [10]: 380

Structure (SMILES): Cc1cc(C)c(S(=O)(=O)NC[C@H]2O[C@@H](C)[C@@H](O)[C@@H](O)[C@@H]2O)c(C)c1
- Kd [6]: 1270 nM
- IC50 [7]: 340 nM
- Kd [8]: 310 nM
- Activity (Pseudomonas aeruginosa [11]): 80%

Structure (SMILES): CCCCCCC[C@H](CC(=O)NCc1ccccc1)OC(=O)C[C@@H](CCCCCCC)O[C@@H]1O[C@@H](C)[C@H](O)[C@@H](O)[C@H]1O[C@@H]1O[C@@H](C)[C@H](O)[C@@H](O)[C@H]1O
- Activity (Staphylococcus aureus [2]): >90%
- Activity (Serratia marcescens): >80%

Structure (SMILES): OC[C@H]1O[C@H](O[C@H]2S[C@H](CO)[C@@H](O)[C@H](O)[C@H]2O)[C@H](O)[C@@H](O)[C@@H]1O
- MIC [3]: > 500 µM
- MBIC [4]: 100 µM

Structure (SMILES): OC[C@H]1O[C@H](O[C@H]2O[C@H](CO)[C@@H](O)[C@H](O)[C@H]2O)[C@@H](O)[C@@H](O)[C@@H]1O
- MIC [3]: > 500 µM
- MBIC [4]: >500 µM

Structure (SMILES): OC[C@H]1O[C@@H](Sc2ccc3ccccc3c2)[C@H](O)[C@@H](O)[C@H]1O
- EC50 (Staphylococcus aureus [5]): 7970 nM

Structure (SMILES): O=C(N/N=C/c1ccc(Oc2ccc(/C=N/NC(=O)c3ccc(O[C@@H]4O[C@H](CO)[C@H](O)[C@H](O)[C@H]4O)cc3)cc2)cc1)c1ccc(O[C@@H]2O[C@H](CO)[C@H](O)[C@H](O)[C@H]2O)cc1
- Kd [12]: 10800 nM
- IC50 [13]: 5000 nM

Structure (SMILES): O=c1oc2c(O)c(O)cc3c(=O)oc4c(O)c(O)cc1c4c23 [ELLAGIC ACID]
- MBIC50 (Staphylococcus aureus [14]): 128 µg/mL
- MBIC90 (Staphylococcus aureus [14]): >512 µg/mL
- MIC50 (Staphylococcus aureus [14]; Staphylococcus aureus, UAMS-1): > 512 µg/mL

Structure (SMILES): OC[C@H]1O[C@H](O[C@@H]2C[C@@H](O)[C@H](O)[C@@H](CO)O2)[C@H](O)[C@@H](O)[C@@H]1O
- MIC [3]: > 500 µM
- MBIC [4]: 50 µM

Structure (SMILES): OC[C@H]1O[C@H](O[C@H]2O[C@H](CO)[C@@H](O)[C@H](O)[C@H]2F)[C@H](O)[C@@H](O)[C@@H]1O
- MIC [3]: > 500 µM
- MBIC [4]: 100 µM

Structure (SMILES): O=c1[nH]ccc2ccc(-c3ccc(O[C@H]4O[C@H](CO)[C@@H](O)[C@H](O)[C@@H]4O)cc3)cc12
- EC>90 [9]: 100 nM

Structure (SMILES): C[C@@H]1O[C@H](CNS(=O)(=O)c2cccs2)[C@@H](O)[C@H](O)[C@@H]1O
- Activity (Pseudomonas aeruginosa [11]): 80%

Structure (SMILES): Cc1cc(-c2ccc3cc[nH]c(=O)c3c2)ccc1O[C@H]1O[C@H](CO)[C@@H](O)[C@H](O)[C@@H]1O
- EC>90 [9]: 31 nM
- IC50 (Escherichia coli): 130 nM

Structure (SMILES): [N-]=[N+]=NC[C@H]1O[C@H](O[C@H]2O[C@H](CO)[C@@H](O)[C@H](O)[C@H]2O)[C@H](O)[C@@H](O)[C@@H]1O
- MIC [3]: > 500 µM
- MBIC [4]: 50 µM

Structure (SMILES): CO[C@H]1O[C@H](CO)[C@@H](O)[C@H](O)[C@@H]1O
- Ratio [10]: 1

Structure (SMILES): CNC(=O)c1cc(C(=O)NC)cc(-c2ccc(O[C@H]3O[C@H](CO)[C@@H](O)[C@H](O)[C@@H]3O)c(C)c2)c1
- EC>90 [9]: 16 nM
